20 compounds from US20100216791A1, “PYRIDINYLQUINAZOLINAMINE DERIVATIVES AND THEIR USE AS B-RAF INHIBITORS” (ASTRAZENECA, priority 2006, published 2010) can be followed below.

This assay addresses Mutant B-Raf (V600E) enzyme (MT B-Raf) (Homo sapiens, UniProt P15056, V600E). Nature of the assay: biochemical. Particulars: B-Raf Alpha screen comparable to the described assay; phosphorylation of biotinylated HIS-MEK-AVI; results may be an average of two or more results.

Sequence of Mutant B-Raf (V600E) enzyme (MT B-Raf) (P15056 whole entry V600E): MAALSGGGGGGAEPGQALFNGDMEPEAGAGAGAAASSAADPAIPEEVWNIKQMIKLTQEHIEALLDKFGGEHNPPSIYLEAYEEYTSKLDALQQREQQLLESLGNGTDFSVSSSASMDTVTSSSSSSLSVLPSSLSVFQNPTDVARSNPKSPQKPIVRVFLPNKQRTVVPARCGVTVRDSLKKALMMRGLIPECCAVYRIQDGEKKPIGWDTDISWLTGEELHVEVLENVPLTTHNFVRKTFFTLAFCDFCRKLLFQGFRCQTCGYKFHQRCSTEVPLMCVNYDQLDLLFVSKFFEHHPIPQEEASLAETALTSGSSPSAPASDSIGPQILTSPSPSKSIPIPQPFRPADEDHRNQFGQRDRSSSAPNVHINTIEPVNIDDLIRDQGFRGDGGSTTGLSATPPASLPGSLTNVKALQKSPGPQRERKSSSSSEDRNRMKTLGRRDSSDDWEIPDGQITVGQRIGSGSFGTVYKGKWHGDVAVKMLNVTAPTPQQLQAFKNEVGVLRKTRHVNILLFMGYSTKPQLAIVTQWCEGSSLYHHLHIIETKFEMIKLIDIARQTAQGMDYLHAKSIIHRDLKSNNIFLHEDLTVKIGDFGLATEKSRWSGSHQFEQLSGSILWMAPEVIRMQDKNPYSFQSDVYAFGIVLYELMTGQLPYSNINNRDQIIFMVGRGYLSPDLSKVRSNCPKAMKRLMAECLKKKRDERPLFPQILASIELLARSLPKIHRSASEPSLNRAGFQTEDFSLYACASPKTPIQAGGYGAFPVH

Usually IC50 stands for the concentration needed to halve the response being measured. A high value points to weaker potency in that assay. `O=S(=O)(c1ccc(Nc2ncc3cc(-c4ccncc4)ccc3n2)cc1)N1CCCC1` [Example 96, 6-Pyridin-4-yl-N-[4-(pyrrolidin-1-ylsulfonyl)phenyl]quinazolin-2-amine] returned an IC50 of 740 nM.
Turning to `CN(C)[C@H]1CCN(C(=O)c2ccc(Nc3ncc4cc(-c5ccncc5)ccc4n3)cc2)C1` [Example 118], the IC50 is 93 nM.
Then `O=C(NCCCN1CCOCC1)c1ccc(Nc2ncc3cc(-c4ccncc4)ccc3n2)cc1` [Example 22, N-(3-Morpholin-4-ylpropyl)-4-[(6-pyridin-4-ylquinazolin-2-yl)amino]benzamide], with 91 nM; and `COc1ccc(Nc2ncc3cc(-c4ccncc4)ccc3n2)cc1` [Example 41, N-(4-Methoxyphenyl)-6-pyridin-4-ylquinazolin-2-amine], with 460 nM; and `CN1CCCC1CCNCc1ccc(Nc2ncc3cc(-c4ccncc4)ccc3n2)cc1` (centres unmarked) [Example 72, N-[4-({[2-(1-Methylpyrrolidin-2-yl)ethyl]amino}methyl)phenyl]-6-pyridin-4-ylquinazolin-2-amine], with 260 nM.
`COCCNC(=O)c1ccc(Nc2ncc3cc(-c4ccncc4)ccc3n2)nc1` [Example 18, N-(2-Methoxyethyl)-6-[(6-pyridin-4-ylquinazolin-2-yl)amino]nicotinamide] showed an IC50 of 1300 nM.
Then `CN(C)c1ccc(Nc2ncc3cc(-c4ccncc4)ccc3n2)cc1` [Example 107, N,N-Dimethyl-N′-(6-pyridin-4-ylquinazolin-2-yl)benzene-1,4-diamine], with 1900 nM.
As to `CC(CN(C)C)NCc1ccc(Nc2ncc3cc(-c4ccncc4)ccc3n2)cc1` (centres unmarked) [Example 74, N^1,N^1-Dimethyl-N^2-{4-[(6-pyridin-4-ylquinazolin-2-yl)amino]benzyl}propane-1,2-diamine], the IC50 was determined as 160 nM.
As to `Cn1ccc(Nc2ncc3cc(-c4ccncc4)ccc3n2)n1` [Example 88, N-(1-Methyl-1H-pyrazol-3-yl)-6-pyridin-4-ylquinazolin-2-amine], half-maximal inhibition (IC50) was put at 1820 nM.
Regarding `O=C(NCCN1CCOCC1)c1ccc(Nc2ncc3cc(-c4ccncc4)ccc3n2)cc1` [Example 5, N-(2-Morpholin-4-ylethyl)-4-[(6-pyridin-4-ylquinazolin-2-yl)amino]benzamide], the IC50 was 180 nM.
As to `CC(NCCO)c1ccc(Nc2ncc3cc(-c4ccncc4)ccc3n2)cc1` (centres unmarked) [Example 57, 2-[(1-{4-[(6-Pyridin-4-ylquinazolin-2-yl)amino]phenyl}ethyl)amino]ethanol], the IC50 worked out at 29 nM.
`CN(CCO)Cc1ccc(Nc2ncc3cc(-c4ccncc4)ccc3n2)cc1` [Example 75, 2-(Methyl{4-[(6-pyridin-4-ylquinazolin-2-yl)amino]benzyl}amino)ethanol]: half-maximal inhibition (IC50) was put at 24 nM.
Next, `CCOc1ccc(Nc2ncc3cc(-c4ccncc4)ccc3n2)cc1` [Example 97, N-(4-Ethoxyphenyl)-6-pyridin-4-ylquinazolin-2-amine]: 450 nM; `CCCNC(C)c1ccc(Nc2ncc3cc(-c4ccncc4)ccc3n2)cc1` (single isomer, unassigned) [Example 142]: 12 nM.
Next, `O=C(NCCCn1ccnc1)c1ccc(Nc2ncc3cc(-c4ccncc4)ccc3n2)cc1` [Example 35, N-[3-(1H-Imidazol-1-yl)propyl]-4-[(6-pyridin-4-ylquinazolin-2-yl)amino]benzamide]: 110 nM.
`CC(O)CCNC(C)c1ccc(Nc2ncc3cc(-c4ccncc4)ccc3n2)cc1` (centres unmarked) [Example 56, 4-[(1-{4-[(6-Pyridin-4-ylquinazolin-2-yl)amino]phenyl}ethyl)amino]butan-2-ol] returned an IC50 of 26 nM.
`CC(C)(C#N)c1ccc(Nc2ncc3cc(-c4ccncc4)ccc3n2)cc1` [Example 2, 2-Methyl-2-{4-[(6-pyridin-4-ylquinazolin-2-yl)amino]phenyl}propanenitrile]: the half-maximal inhibitory concentration (IC50) worked out at 730 nM.
Turning to `Cc1cc(Nc2ncc3cc(-c4ccncc4)ccc3n2)ccc1C(=O)NCCN(C)C` [Example 36, N-[2-(Dimethylamino)ethyl]-2-methyl-4-[(6-pyridin-4-ylquinazolin-2-yl)amino]benzamide], the IC50 was 95 nM.
Consider `c1cc(-c2ccc3nc(Nc4ccc5c(c4)OCO5)ncc3c2)ccn1` [Example 44, N-1,3-Benzodioxol-5-yl-6-pyridin-4-ylquinazolin-2-amine], for which the IC50 is 420 nM.
For the compound `CC(C)(C)OC(=O)N1CCC(CNC(=O)c2ccc(Nc3ncc4cc(-c5ccncc5)ccc4n3)cc2)CC1` [Example 24, tert-Butyl 4-[({4-[(6-pyridin-4-ylquinazolin-2-yl)amino]benzoyl}amino)methyl]piperidine-1-carboxylate], it took 520 nM to reach half-maximal inhibition (IC50).
